The results in this text go back to US5621010A, “Urea derivatives and their use as ACAT inhibitors” (Nisshin Flour Milling Co., Ltd., priority 1993, dated 1997).

The test system of assay [1] is ACAT (liver microsome fractions of male rabbits). The experiment in a line: ACAT inhibitory activity: formation of labelled cholesteryl esters from [1-14C]oleoyl-CoA and endogenous cholesterol. Type of assay: biochemical, rabbit. The conditions noted are these: compound added at 10^-7 M. The procedure:
The enzyme preparation, ACAT was prepared from liver microsme fractions of male rabbits according to the method of E. E. Largis et al. (Journal of Lipid Research, Vol. 30, pages 681-690, 1989). The activity was calculated by assaying the amount of the labelled cholesteryl esters formed from [1-^14 C]oleoyl-CoA and endogenous cholesterol according to the method of Kazuichi NATORI et al. (Japan J. Pharmacol., Vol. 42, pages 517-523, 1986).
The result is shown in Table 1, in which percent inhibition of the formation of the labelled cholesteryl esters with a compound added at 10^-7 M is indicated as index for the ACAT inhibitory activity.

The next assay relates to Human LDL. The experiment in a line: Antioxidative activity: inhibition of MDA formation from LDL incubated with cupric sulfate. Type of assay: biochemical. The note with it: compound 10^-5 M; cupric sulfate 5×10^-6 M; 5 hrs; compared with control. The procedure:
Human LDL was incubated in the presence of cupric sulfate (5×10^-6 M) and in the presence or absence of a compound (10^-5 M) for 5 hrs. After the incubation, the peroxidation of low-density lipoproteins (LDL) is evaluated by the formation of malondialdehyde (MDA), which is a sort of lipid peroxides according to the method of Simon J. T. Mao et al. (J. Med. Chem., Vol. 34, pages 298-302, 1991). Activity of the compound is shown by percent inhibition of the MDA formation as compared with control.

With `CC(C)(C)c1cc(/C=C/c2ccccc2NC(=O)N2CCC[C@H]3CCCC[C@H]32)cc(C(C)(C)C)c1O` (relative stereo) [Example 159], in assay [1], the “ACAT Inhibition” value stood at 97%.
The same measure, in the same setting: then `CC(C)(C)c1cc(CCc2cc(F)cc(F)c2NC(=O)N2CCC[C@H]3CCCC[C@H]32)cc(C(C)(C)C)c1O` (relative stereo) [Example 166], with 100%.
Regarding `CCCCCCOc1ccc(NC(=O)Nc2ccccc2CCc2cc(C(C)(C)C)c(O)c(C(C)(C)C)c2)cc1` [Example 1, N-[2-(3,5-di-tert-butyl-4-hydroxyphenethyl)phenyl]-N'-(4-hexyloxyphenyl)urea], the “ACAT Inhibition” value in assay [1] is 83%. In addition, the “Antioxidant Activity (percent inhibition of the MDA formation)” value in the assay with Human LDL is 94%.
On the same counts, the results for `CC(C)(C)c1cc(CCc2ccccc2NC(=O)NC2CCCCCC2)cc(C(C)(C)C)c1O` [Example 4, N-[2-(3,5-di-tert-butyl-4-hydroxyphenethyl)phenyl]-N'-cycloheptylurea] are 95% and 98%.
For `CC(C)(C)c1cc(CCc2ccccc2NC(=O)NCCc2ccccc2)cc(C(C)(C)C)c1O` [Example 5, N-[2-(3,5-di-tert-butyl-4-hydroxyphenethyl)phenyl]-N'-phenethylurea], in assay [1], the “ACAT Inhibition” value came to 89%. Besides, the “Antioxidant Activity (percent inhibition of the MDA formation)” value in the assay with Human LDL was found to be 100%.
In the case of `CC(C)(C)c1cc(CCc2ccccc2NC(=O)NCC(c2ccccc2)c2ccccc2)cc(C(C)(C)C)c1O` [Example 6, N-[2-(3,5-di-tert-butyl-4-hydroxyphenethyl)phenyl]-N'-(2,2-diphenylethyl)urea], the “ACAT Inhibition” value in assay [1] stood at 99%. Moreover, in the assay with Human LDL, the “Antioxidant Activity (percent inhibition of the MDA formation)” value worked out at 98%.
On the same counts, the results for `CCCCCCCNC(=O)Nc1ccccc1CCc1cc(C(C)(C)C)c(O)c(C(C)(C)C)c1` [Example 12, N-[2-(3,5-di-tert-butyl-4-hydroxyphenethyl)phenyl]-N'-heptylurea] are 91% and 94%.
On the same counts, the results for `CC(C)=CCCC(C)=CCNC(=O)Nc1ccccc1CCc1cc(C(C)(C)C)c(O)c(C(C)(C)C)c1` [Example 13, N-[2-(3,5-di-tert-butyl-4-hydroxyphenethyl)phenyl]-N'-(3,7-dimethyl-2,6-octadienyl)urea] are 90% and 92%.
On the same counts, the results for `CC(C)(C)CC(C)(C)NC(=O)Nc1ccccc1CCc1cc(C(C)(C)C)c(O)c(C(C)(C)C)c1` [Example 14, N-[2-(3,5-di-tert-butyl-4-hydroxyphenethyl)phenyl]-N'-(2,4,4-trimethyl-2-pentyl)urea] are 93% and 98%.
`CCOCCCNC(=O)Nc1ccccc1CCc1cc(C(C)(C)C)c(O)c(C(C)(C)C)c1` [Example 15, N-[2-(3,5-di-tert-butyl-4-hydroxyphenethyl)phenyl]-N'-(3-ethoxypropyl)urea]: the “ACAT Inhibition” value in assay [1] turned out to be 76%. In the assay on Human LDL, the “Antioxidant Activity (percent inhibition of the MDA formation)” value amounted to 99%.
Take `CC(C)(C)c1cc(CCc2ccccc2NC(=O)NC2CCCC2)cc(C(C)(C)C)c1O` [Example 16, N-[2-(3,5-di-tert-butyl-4-hydroxyphenethyl)phenyl]-N'-cyclopentylurea]: the “ACAT Inhibition” value in assay [1] is given as 93%. Moreover, the “Antioxidant Activity (percent inhibition of the MDA formation)” value in the assay with Human LDL worked out at 95%.
In the case of `CC(C)(C)c1cc(CCc2ccccc2NC(=O)NC2CCCCC2)cc(C(C)(C)C)c1O` [Example 17, N-[2-(3,5-di-tert-butyl-4-hydroxyphenethyl)phenyl]-N'-cyclohexylurea], in assay [1], the “ACAT Inhibition” value worked out at 92%. Moreover, the “Antioxidant Activity (percent inhibition of the MDA formation)” value in the assay on Human LDL turned out to be 99%.
On the same counts, the results for `CC(C)(C)c1cc(CCc2ccccc2NC(=O)NC2CCCCCCC2)cc(C(C)(C)C)c1O` [Example 18, N-[2-(3,5-di-tert-butyl-4-hydroxyphenethyl)phenyl]-N'-cyclooctylurea] are 97% and 97%.
On the same counts, the results for `CC(C)(C)c1cc(CCc2ccccc2NC(=O)NC(c2ccccc2)c2ccccc2)cc(C(C)(C)C)c1O` [Example 29, N-[2-(3,5-di-tert-butyl-4-hydroxyphenethyl)phenyl]-N'-diphenylmethylurea] are 99% and 95%.
On the same counts, the results for `CC(C)(C)c1cc(CCc2ccccc2NC(=O)NCc2ccco2)cc(C(C)(C)C)c1O` [Example 30, N-[2-(3,5-di-tert-butyl-4-hydroxyphenethyl)phenyl]-N'-[(2-furyl)methyl]urea] are 84% and 92%.
For `CCSCCNC(=O)Nc1ccccc1CCc1cc(C(C)(C)C)c(O)c(C(C)(C)C)c1` [Example 38, N-[2-(3,5-di-tert-butyl-4-hydroxyphenethyl)phenyl]-N'-(2-ethylthioethyl)urea], in assay [1], the “ACAT Inhibition” value is listed as 71%. In addition, the “Antioxidant Activity (percent inhibition of the MDA formation)” value in the assay on Human LDL was found to be 94%.
As for `CN1CC2CC(NC(=O)Nc3ccccc3CCc3cc(C(C)(C)C)c(O)c(C(C)(C)C)c3)CC(C1)N2C` (stereo not drawn) [Example 39, N-[2-(3,5-di-tert-butyl-4-hydroxyphenethyl)phenyl]-N'-(3,9-dimethyl-3,9-diazabicyclo[3.3.1]-7-nonyl)urea], the “ACAT Inhibition” value in assay [1] is 88%. Moreover, in the assay on Human LDL, the “Antioxidant Activity (percent inhibition of the MDA formation)” value is 87%.
On the same counts, the results for `CCCCCCCN(Cc1ccccc1)C(=O)Nc1ccccc1CCc1cc(C(C)(C)C)c(O)c(C(C)(C)C)c1` [Example 40, N-[2-(3,5-di-tert-butyl-4-hydroxyphenethyl)phenyl]-N'-benzyl-N'-heptylurea] are 96% and 98%.
Consider `CC(C)(C)c1cc(CCc2ccccc2NC(=O)NCC(C)(C)c2ccc(F)cc2)cc(C(C)(C)C)c1O` [Example 140, N-[2-(3,5-di-tert-butyl-4-hydroxyphenethyl)phenyl]-N'-[2-(4-fluorophenyl)-2-methylpropyl]urea], for which the “ACAT Inhibition” value in assay [1] is recorded as 96%.
The same measure, in the same setting: the same measure for `CC(C)(C)c1cc(CCc2ccccc2NC(=O)NCC(C)(C)c2ccc(N3CCCC3)cc2)cc(C(C)(C)C)c1O` [Example 141, N-[2-(3,5-di-tert-butyl-4-hydroxyphenethyl)phenyl]-N'-[2-[4-(1-pyrrolidinyl)phenyl]-2-methylpropyl]urea]: 86%; for `CCCN(C(=O)Nc1ccccc1CCc1cc(C(C)(C)C)c(O)c(C(C)(C)C)c1)C1CCN(Cc2ccccc2)CC1` [Example 146, N-[2-(3,5-di-tert-butyl-4-hydroxyphenethyl)phenyl]-N'-(1-benzyl-4-piperidyl)-N'-propylurea]: 85%.
Same read-out and setting: the same measure for `CC(C)(C)c1cc(CCc2c(F)cccc2NC(=O)NC2CCN(Cc3ccccc3)CC2)cc(C(C)(C)C)c1O` [Example 155, N-[2-(3,5-di-tert-butyl-4-hydroxyphenethyl)-3-fluorophenyl]-N'-(1-benzyl-4-piperidyl)urea]: 94%; for `COc1cccc(CCc2cc(C(C)(C)C)c(O)c(C(C)(C)C)c2)c1NC(=O)NC1CCN(Cc2ccccc2)CC1` [Example 163, N-[2-(3,5-di-tert-butyl-4-hydroxyphenethyl)-6-methoxyphenyl]-N'-(1-benzyl-4-piperidyl)urea]: 81%.
The same measure, in the same setting: then `CN(C(=O)Nc1c(F)cc(F)cc1CCc1cc(C(C)(C)C)c(O)c(C(C)(C)C)c1)C1CCN(Cc2ccccc2)CC1` [Example 165, N-[2-(3,5-di-tert-butyl-4-hydroxyphenethyl)-4,6-difluorophenyl]-N'-(1-benzyl-4-piperidyl)-N'-methylurea], with 99%; and `CC(C)(C)c1cc(CCc2cc(F)cc(F)c2NC(=O)NC2CCN(Cc3ccccc3)CC2)cc(C(C)(C)C)c1O.Cl` [Example 167, N-[2-(3,5-di-tert-butyl-4-hydroxyphenethyl)-4,6-difluorophenyl]-N'-(1-benzyl-4-piperidyl)urea hydrochloride], with 100%; and `Cc1cccc(CCc2cc(C(C)(C)C)c(O)c(C(C)(C)C)c2)c1NC(=O)NC1CCN(Cc2ccccc2)CC1` [Example 168, N-[2-(3,5-di-tert-butyl-4-hydroxyphenethyl)-6-methylphenyl]-N'-(1-benzyl-4-piperidyl)urea], with 93%.
Turning to `CC(C)(C)c1cc(CCc2ccccc2NC(=O)N[C@H](C(=O)OCc2ccccc2)c2ccccc2)cc(C(C)(C)C)c1O` [Example 173, (S)-N-[2-(3,5-di-tert-butyl-4-hydroxyphenethyl)phenyl]-N'-(α-benzyloxycarbonyl)benzylurea], the “ACAT Inhibition” value in assay [1] is on record as 95%.
With `CC1(C)CCCN(C(=O)Nc2ccccc2CCc2cc(C(C)(C)C)c(O)c(C(C)(C)C)c2)C1` [Example 177, 1-[N-[2-(3,5-di-tert-butyl-4-hydroxyphenethyl)phenyl]carbamoyl]-3,3-dimethylpiperidine], in assay [1], the “ACAT Inhibition” value was determined as 98%.
The same measure, in the same setting: then `CC(C)(C)c1cc(CCc2ccc(Cl)cc2NC(=O)NC2CCN(Cc3ccccc3)CC2)cc(C(C)(C)C)c1O` [Example 183, N-[2-(3,5-di-tert-butyl-4-hydroxyphenethyl)-5-chlorophenyl]-N'-(1-benzyl-4-piperidyl)urea], with 91%.
